# Test results reported in ChEMBL document CHEMBL1136196, “Synthesis of three enantiomeric pairs of scyllo-inositol phosphate and molecular interactions between all possible regioisomers of scyllo-inositol phosphate and inositol 1,4,5-trisphosphate 3-kinase” (Bioorg Med Chem Lett, 2003).
# Target: Inositol-trisphosphate 3-kinase A (Rattus norvegicus, UniProt P17105)
# Assay: Binding affinity against recombinant plasmid rat brain IP3K by overexpressing in Escherichia coli
# Inositol-trisphosphate 3-kinase A, sequence (P17105 whole entry): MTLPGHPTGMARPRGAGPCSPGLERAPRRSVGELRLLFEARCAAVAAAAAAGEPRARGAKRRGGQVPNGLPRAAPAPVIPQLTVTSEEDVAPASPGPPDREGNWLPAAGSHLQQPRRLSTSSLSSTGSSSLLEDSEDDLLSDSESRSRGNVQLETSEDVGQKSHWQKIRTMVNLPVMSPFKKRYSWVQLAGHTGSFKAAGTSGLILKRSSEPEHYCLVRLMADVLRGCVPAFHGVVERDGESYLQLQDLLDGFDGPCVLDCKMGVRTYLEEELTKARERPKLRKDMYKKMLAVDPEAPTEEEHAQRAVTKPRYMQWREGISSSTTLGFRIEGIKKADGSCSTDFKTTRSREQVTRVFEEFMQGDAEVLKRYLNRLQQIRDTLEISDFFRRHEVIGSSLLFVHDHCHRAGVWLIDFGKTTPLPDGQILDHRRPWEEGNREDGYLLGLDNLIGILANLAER
row,IC50,SMILES
1,27.8 µM,O=P(O)(O)O[C@H]1[C@H](O)[C@@H](OP(=O)(O)O)[C@H](OP(=O)(O)O)[C@@H](OP(=O)(O)O)[C@H]1O
2,27.4 µM,O=P(O)(O)O[C@H]1[C@H](OP(=O)(O)O)[C@H](O)[C@H](O)[C@@H](O)[C@@H]1OP(=O)(O)O
3,> 100 µM,O=P(O)(O)O[C@H]1[C@H](OP(=O)(O)O)[C@H](OP(=O)(O)O)[C@H](O)[C@@H](O)[C@H]1OP(=O)(O)O
4,39.4 µM,O=P(O)(O)O[C@H]1[C@@H](O)[C@@H](OP(=O)(O)O)[C@H](OP(=O)(O)O)[C@@H](OP(=O)(O)O)[C@@H]1O
5,90 µM,O=P(O)(O)O[C@H]1[C@H](O)[C@@H](OP(=O)(O)O)[C@H](O)[C@@H](OP(=O)(O)O)[C@H]1O
6,> 100 µM,O=P(O)(O)O[C@H]1[C@H](OP(=O)(O)O)[C@@H](OP(=O)(O)O)[C@H](O)[C@@H](O)[C@H]1OP(=O)(O)O
7,2.6 µM,"O=P(O)(O)O[C@@H]1[C@H](O)[C@H](O)[C@@H](OP(=O)(O)O)[C@H](OP(=O)(O)O)[C@H]1O (stereo in doubt; form 1) [INS(1,4,5)P3]"
8,6.3 µM,"O=P(O)(O)O[C@@H]1[C@H](O)[C@H](O)[C@@H](OP(=O)(O)O)[C@H](OP(=O)(O)O)[C@H]1O (stereo in doubt; form 2) [INS(1,4,5)P3]"
9,43.7 µM,"O=P(O)(O)O[C@@H]1[C@H](O)[C@H](O)[C@@H](OP(=O)(O)O)[C@H](OP(=O)(O)O)[C@H]1O (stereo in doubt; form 3) [INS(1,4,5)P3]"
